{"source": "patent US20220386635A1", "about": "“NITRITE REPLACEMENT (CURING AIDS) CONTAINING NATURAL INGREDIENTS” (KEMIN INDUSTRIES, INC., priority 2021, published 2022)", "key": {"[1]": {"test_system": "C. botulinum spores (Type A: NCTC 7272, Type E: LFMFP-CB 707 and Type E: LFMFP-CB 666)", "type": "cell-based, Clostridium botulinum", "conditions": "7° C.; for Anaerobic count: Blend 0.4%, Repl 1 and Repl 2"}, "Listeria monocytogenes [2]": {"test_system": "Listeria monocytogenes", "experiment": "Listeria monocytogenes challenge test, Example 5 experiment 1", "type": "cell-based"}, "botulinum toxin": {"test_system": "botulinum toxin", "design": "species or system Clostridium botulinum"}, "[3]": {"experiment": "Physico-chemical parameters of low salt emulsified cooked pork sausages, Example 6"}, "[4]": {"experiment": "Lipid oxidation (TBARS) in cooked sausages", "conditions": "7° C., shelf life of 8 weeks; threshold for off-odor 0.5 ppm"}, "Listeria monocytogenes [5]": {"test_system": "Listeria monocytogenes", "experiment": "Listeria monocytogenes challenge study, Example 6", "type": "cell-based", "conditions": "after 3 weeks at 7° C.; inoculum 2.6 log10CFU/g"}, "[6]": {"experiment": "Color evaluation (L*a*b*, C*, hue) of sausages with black carrot extract, Example 2", "conditions": "50 days at 7° C., dark or illuminated last 72 h"}, "C. botulinum spores": {"test_system": "C. botulinum spores", "type": "cell-based, Clostridium botulinum"}, "[7]": {"conditions": "low salt (1.2%) sausage, dosages per Table 23"}, "[8]": {"conditions": "low salt sausage, dosages per Table 23"}}, "note": "“And” between values parts separate entries of the source, which are not always exact repeats. Equal entries are not always repeated. Where two headings read alike, the source gives them in different places. Marks after values point to notes of the source that are not given here."}
{"smiles": "O=NO", "note": "[Positive control, sodium nitrite]", "values": [{"measurement": "growth of C. botulinum", "setting": "[1]; 8 weeks, 0.4% of the invented blend", "result": "no growth"}, {"measurement": "Anaerobic count", "setting": "[1]; storage time 0 days", "result": "3.08 log10CFU/g and 2.73 log10CFU/g"}, {"measurement": "Anaerobic count", "setting": "[1]; storage time 14 days", "result": "2.75 log10CFU/g and 2.70 log10CFU/g"}, {"measurement": "Anaerobic count", "setting": "[1]; storage time 28 days", "result": "2.61 log10CFU/g and 2.62 log10CFU/g"}, {"measurement": "Anaerobic count", "setting": "[1]; storage time 42 days", "result": "2.67 log10CFU/g and 2.46 log10CFU/g"}, {"measurement": "Anaerobic count", "setting": "[1]; storage time 56 days", "result": "2.49 log10CFU/g and 2.43 log10CFU/g"}, {"measurement": "L. monocytogenes count", "setting": "Listeria monocytogenes [2]; after 8 weeks at 7° C., inoculum 300 CFU/g", "result": 7, "unit": "log10CFU/g"}, {"measurement": "time to 1 log increase of L. monocytogenes", "setting": "Listeria monocytogenes [2]; positive control with nitrite, 7° C.", "result": 14, "unit": "days"}, {"measurement": "Number of samples in which botulinum toxin was detected to total analyzed samples", "setting": "botulinum toxin", "result": "0/2"}, {"measurement": "aw", "setting": "[3]; 25° C., low salt sausage, dosages per Table 23", "result": 0.978}, {"measurement": "Salt content", "setting": "[3]; calculated based on sodium content, low salt sausage", "result": 1.55, "unit": "%"}, {"measurement": "Salt content in aqueous phase", "setting": "[3]; calculated from salt content and moisture content", "result": 2.9, "unit": "%"}, {"measurement": "pH of cooked meat", "setting": "[3]; [7]", "result": "6.21^a"}, {"measurement": "pH of meat batter", "setting": "[3]; [7]", "result": "5.87^ab"}, {"measurement": "Acetic acid content", "setting": "[3]; [8]", "result": 0.008, "unit": "%"}, {"measurement": "Moisture content", "setting": "[3]; [8]", "result": 52.3, "unit": "%"}, {"measurement": "Lipid oxidation (TBARS values)", "setting": "[4]", "result": "maintain low TBARS values"}, {"measurement": "L. monocytogenes count", "setting": "Listeria monocytogenes [5]", "result": "more than 7 log10CFU/g"}, {"measurement": "Color stability during storage", "setting": "[6]", "result": "faded drastically"}, {"measurement": "Clostridium botulinum outgrowth", "setting": "C. botulinum spores; 7° C., 8 weeks, significant growth = >0.5 log10CFU/g", "result": "no growth of C. botulinum"}, {"measurement": "Anaerobic count (average ± standard deviation, n = 2)", "setting": "C. botulinum spores; storage time 0 days at 7° C., dosages per Table 23", "result": "3.7 ± 0.1", "unit": "log10CFU/g"}, {"measurement": "Anaerobic count (average ± standard deviation, n = 2)", "setting": "C. botulinum spores; storage time 14 days at 7° C., * significant outgrowth (>0.5 log10CFU/g) in at least one replicate", "result": "2.3 ± 0.3", "unit": "log10CFU/g"}, {"measurement": "Anaerobic count (average ± standard deviation, n = 2)", "setting": "C. botulinum spores; storage time 24 days at 7° C., * significant outgrowth (>0.5 log10CFU/g) in at least one replicate", "result": "2.4 ± 0.0", "unit": "log10CFU/g"}, {"measurement": "Anaerobic count (average ± standard deviation, n = 2)", "setting": "C. botulinum spores; storage time 42 days at 7° C., * significant outgrowth (>0.5 log10CFU/g) in at least one replicate", "result": "2.2 ± 0.1", "unit": "log10CFU/g"}, {"measurement": "Anaerobic count (average ± standard deviation, n = 2)", "setting": "C. botulinum spores; storage time 56 days at 7° C., * significant outgrowth (>0.5 log10CFU/g) in at least one replicate", "result": "2.2 ± 0.0", "unit": "log10CFU/g"}]}
